In patent US9040547B2, “Pyrrolopyrimidine and purine derivatives” (PFIZER INC., priority 2011, dated 2015):
pIC50: −log10 of the molar value.

Key:
Assay type in all cases: cell-based
[1] = molecular target: EGFR L858R+T790M (Homo sapiens, UniProt P00533, L858R/T790M); test: pEGFR Y1068 ELISA assay, NIH3T3/EGFR_L858R+T790M cells; conditions: 3T3 cell line, 2 hrs compound treatment; read-out: pEGFRY1068 ELISA3T3T790M—L858R IC50;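 further: sandwich ELISA of EGFR phosphorylated at Tyr1068 in lysates of stably transfected NIH/3T3 cells, 11-point threefold dilution series run in duplicate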
[2] = molecular target: EGFR E746-A750 deletion (Homo sapiens, UniProt P00533, DEL746-750); test: pEGFR Y1068 ELISA assay, NIH3T3/EGFR_E746-A750 deletion cells; conditions: 3T3 Del cells, 2 hrs compound treatment; read-out: ELISA7E 3T3 Del IC50;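 further: sandwich ELISA on cell lysates detecting phospho-EGFR at Tyr1068, compounds run as 11-point threefold dilution series in duplicate, IC50 from inhibition of this phosphorylation signal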
[3] = molecular target: T1, EGFR wildtype, endogenous (Homo sapiens, UniProt P00533); test: pEGFR Y1068 ELISA assay, A549 cells; conditions: full serum media, stimulated 10 min with EGF (40 ng/mL), read-out: pEGFRY1068 ELISAA549 IC50;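 further: sandwich ELISA of phospho-EGFR Tyr1068 in cell lysates, cells exposed to compound for 2 h before EGF stimulation, 11-point threefold dilution series run in duplicate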
T1 construct: A549 (EGFR wildtype, endogenous); host or cells: A549

[4] = molecular target: EGFR L858R (Homo sapiens, UniProt P00533, L858R); test: pEGFR Y1068 ELISA assay, NIH3T3/EGFR_L858R cells; conditions: 3T3 cell line, 2 hrs compound treatment; read-out: pEGFRY1068 ELISA3T3 L858R IC50;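 further: sandwich ELISA of phospho-EGFR Tyr1068 in lysates of stably transfected NIH/3T3 pools after 2 h compound exposure at 37 °C, 11-point threefold dilution series run in duplicate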
[5] = molecular target: T2, EGFR Del (PC9) (Homo sapiens, UniProt P00533, DEL746-750); test: EGFR ELISA, PC9 Del cells; conditions: read-out: EGFR_ELISA9E PC9 Del IC50;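 further: cellular EGFR autophosphorylation at Tyr1068 quantified by sandwich ELISA of cell lysates after 2 h compound exposure at 37 °C, 11-point threefold dilution series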
T2 construct: endogenous in cells; host or cells: PC-9
T2 sequence (P00533 with tags, fused parts or gaps DEL746-750): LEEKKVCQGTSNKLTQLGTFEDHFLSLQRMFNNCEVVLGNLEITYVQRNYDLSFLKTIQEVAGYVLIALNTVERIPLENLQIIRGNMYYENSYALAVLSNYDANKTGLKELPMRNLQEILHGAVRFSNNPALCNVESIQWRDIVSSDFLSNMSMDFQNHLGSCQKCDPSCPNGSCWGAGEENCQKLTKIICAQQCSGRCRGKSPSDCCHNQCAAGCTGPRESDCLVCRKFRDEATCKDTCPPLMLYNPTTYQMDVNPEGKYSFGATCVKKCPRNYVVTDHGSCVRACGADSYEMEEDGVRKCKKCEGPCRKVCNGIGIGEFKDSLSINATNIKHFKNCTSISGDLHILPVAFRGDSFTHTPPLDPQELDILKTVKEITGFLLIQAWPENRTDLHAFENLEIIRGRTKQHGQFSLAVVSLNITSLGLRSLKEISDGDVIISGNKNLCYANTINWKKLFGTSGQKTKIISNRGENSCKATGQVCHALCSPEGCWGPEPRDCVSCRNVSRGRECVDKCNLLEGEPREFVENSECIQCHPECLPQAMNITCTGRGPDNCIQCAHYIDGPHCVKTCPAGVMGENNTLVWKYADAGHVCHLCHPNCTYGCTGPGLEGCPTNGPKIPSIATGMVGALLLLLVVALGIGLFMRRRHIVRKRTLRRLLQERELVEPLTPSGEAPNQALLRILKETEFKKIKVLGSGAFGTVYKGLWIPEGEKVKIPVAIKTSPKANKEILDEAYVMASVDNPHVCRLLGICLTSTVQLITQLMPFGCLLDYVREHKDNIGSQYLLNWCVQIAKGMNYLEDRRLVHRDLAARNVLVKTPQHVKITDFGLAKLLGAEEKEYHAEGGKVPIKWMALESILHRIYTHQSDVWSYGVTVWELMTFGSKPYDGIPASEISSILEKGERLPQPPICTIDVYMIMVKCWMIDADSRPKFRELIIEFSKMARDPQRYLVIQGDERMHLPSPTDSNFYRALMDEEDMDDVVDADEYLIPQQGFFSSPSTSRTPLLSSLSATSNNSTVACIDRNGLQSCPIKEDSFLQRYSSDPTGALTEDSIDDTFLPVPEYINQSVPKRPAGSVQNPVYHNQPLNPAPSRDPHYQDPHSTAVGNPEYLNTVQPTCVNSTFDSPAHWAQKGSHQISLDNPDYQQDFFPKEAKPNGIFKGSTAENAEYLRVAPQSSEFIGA

T1 sequence (P00533 25-1210): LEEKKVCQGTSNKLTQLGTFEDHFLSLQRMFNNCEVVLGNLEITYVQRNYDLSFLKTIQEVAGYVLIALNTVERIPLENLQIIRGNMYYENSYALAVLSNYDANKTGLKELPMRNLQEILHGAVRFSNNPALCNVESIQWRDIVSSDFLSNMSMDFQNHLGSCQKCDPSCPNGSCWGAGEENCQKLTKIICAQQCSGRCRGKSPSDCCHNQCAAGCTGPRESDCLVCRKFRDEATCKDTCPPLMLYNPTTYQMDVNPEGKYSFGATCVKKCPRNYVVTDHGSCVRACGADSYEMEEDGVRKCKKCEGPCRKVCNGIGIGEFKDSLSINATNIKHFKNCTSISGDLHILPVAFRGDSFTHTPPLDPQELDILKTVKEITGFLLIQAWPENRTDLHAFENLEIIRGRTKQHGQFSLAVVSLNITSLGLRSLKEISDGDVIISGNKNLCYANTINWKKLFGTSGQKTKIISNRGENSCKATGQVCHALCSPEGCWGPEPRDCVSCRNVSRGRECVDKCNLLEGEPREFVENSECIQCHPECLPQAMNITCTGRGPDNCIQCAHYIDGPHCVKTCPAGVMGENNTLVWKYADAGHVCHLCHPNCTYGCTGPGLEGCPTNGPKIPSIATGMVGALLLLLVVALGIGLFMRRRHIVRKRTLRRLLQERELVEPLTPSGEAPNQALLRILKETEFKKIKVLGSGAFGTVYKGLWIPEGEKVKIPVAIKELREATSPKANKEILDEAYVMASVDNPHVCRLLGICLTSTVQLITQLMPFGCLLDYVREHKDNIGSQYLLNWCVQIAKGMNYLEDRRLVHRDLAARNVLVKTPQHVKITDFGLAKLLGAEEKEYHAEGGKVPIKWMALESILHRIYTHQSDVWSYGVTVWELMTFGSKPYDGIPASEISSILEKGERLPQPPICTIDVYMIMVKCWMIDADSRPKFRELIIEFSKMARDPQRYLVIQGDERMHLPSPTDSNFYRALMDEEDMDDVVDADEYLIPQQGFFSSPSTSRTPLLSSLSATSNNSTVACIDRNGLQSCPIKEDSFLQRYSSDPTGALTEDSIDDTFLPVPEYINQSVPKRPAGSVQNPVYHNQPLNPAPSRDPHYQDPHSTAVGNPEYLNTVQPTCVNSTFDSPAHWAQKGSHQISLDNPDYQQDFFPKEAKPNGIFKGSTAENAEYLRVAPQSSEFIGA
Sequence of EGFR L858R (P00533 25-1210 L858R): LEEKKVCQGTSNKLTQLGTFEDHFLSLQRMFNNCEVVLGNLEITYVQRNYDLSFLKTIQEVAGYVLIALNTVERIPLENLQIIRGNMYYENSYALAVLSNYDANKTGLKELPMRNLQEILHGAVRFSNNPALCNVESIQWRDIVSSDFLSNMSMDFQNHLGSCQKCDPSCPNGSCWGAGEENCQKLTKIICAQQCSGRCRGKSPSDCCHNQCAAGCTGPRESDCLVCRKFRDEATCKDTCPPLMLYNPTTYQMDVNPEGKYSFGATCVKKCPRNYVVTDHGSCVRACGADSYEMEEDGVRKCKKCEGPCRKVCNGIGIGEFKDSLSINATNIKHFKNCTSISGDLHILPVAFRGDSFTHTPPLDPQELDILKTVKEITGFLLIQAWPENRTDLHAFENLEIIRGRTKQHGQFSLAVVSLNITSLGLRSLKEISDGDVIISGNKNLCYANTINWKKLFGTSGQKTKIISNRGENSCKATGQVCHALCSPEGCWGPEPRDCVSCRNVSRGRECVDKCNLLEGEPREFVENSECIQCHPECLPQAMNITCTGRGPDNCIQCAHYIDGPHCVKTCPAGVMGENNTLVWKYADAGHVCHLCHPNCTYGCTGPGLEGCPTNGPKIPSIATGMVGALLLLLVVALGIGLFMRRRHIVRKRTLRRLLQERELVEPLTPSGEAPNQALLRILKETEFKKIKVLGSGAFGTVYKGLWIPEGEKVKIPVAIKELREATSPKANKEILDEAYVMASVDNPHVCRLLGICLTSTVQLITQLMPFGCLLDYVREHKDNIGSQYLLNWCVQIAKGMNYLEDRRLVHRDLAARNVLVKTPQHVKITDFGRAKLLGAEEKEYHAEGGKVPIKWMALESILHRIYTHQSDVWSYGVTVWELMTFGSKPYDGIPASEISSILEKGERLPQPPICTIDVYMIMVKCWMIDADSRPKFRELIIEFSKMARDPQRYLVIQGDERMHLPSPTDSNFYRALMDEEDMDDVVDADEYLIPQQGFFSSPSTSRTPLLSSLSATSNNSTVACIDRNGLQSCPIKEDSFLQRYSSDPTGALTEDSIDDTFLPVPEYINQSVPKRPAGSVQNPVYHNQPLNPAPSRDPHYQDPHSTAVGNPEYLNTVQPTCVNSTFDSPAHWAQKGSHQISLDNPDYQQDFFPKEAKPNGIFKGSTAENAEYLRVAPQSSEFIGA
Sequence of EGFR E746-A750 deletion (P00533 with tags, fused parts or gaps DEL746-750): as the sequence (P00533 with tags, fused parts or gaps DEL746-750) above

Structure (SMILES)	pIC50 [1]	pIC50 [2]	pIC50 [3]	pIC50 [4]	pIC50 [5]
C=CS(=O)(=O)N1CCc2c(Oc3nc(Nc4cnn(C)c4)nc4[nH]ccc34)cccc21 [Example 44]	7.60	7.05	5.45	6.26	–
C=CC(=O)N1C[C@H](COc2nc(Nc3cnn(C)c3)nc3[nH]ccc23)[C@@H](C)C1 (single isomer, unassigned) [Example 4]	7.11	–	< 5.00	6.26	–
C=CC(=O)N1CCO[C@@H](COc2nc(Nc3cnn(C)c3)nc3[nH]ccc23)C1 [Example 17]	6.98	–	< 5.00	5.69	–
C=CC(=O)N1CCc2c(Oc3nc(Nc4cnn(C)c4)nc4[nH]ccc34)cccc21 [Example 38]	8.10	–	5.23	7.05	–
C=CC(=O)N1C[C@@H](COc2nc(Nc3cnn(C)c3)nc3[nH]ccc23)[C@H](C)C1 (single isomer, unassigned) [Example 3]	7.24	–	5.04	6.13	–
C=CC(=O)Nc1cccc(Oc2nc(Nc3cnn(CC(C)(C)O)c3)nc3[nH]ccc23)c1 [Example 25]	7.16	–	< 5.00	5.99	–
C=CC(=O)N[C@H]1C[C@H](Oc2nc(Nc3cnn(C)c3)nc3[nH]cc(C#N)c23)C1 [Example 14]	5.74	–	< 5.00	< 5.00	–
C=CC(=O)N1CC(COc2nc(Nc3cnn(C)c3)nc3[nH]ccc23)C1 [Example 16]	6.51	–	< 5.00	5.60	–
C=CC(=O)Nc1cccc(Oc2nc(Nc3ccn(CCN(C)C)n3)nc3[nH]ccc23)c1 [Example 51]	7.46	6.86	< 5.00	6.37	–
C=CC(=O)N[C@H]1C[C@H](Nc2nc(Nc3cnn(C)c3)nc3[nH]ccc23)C1 [Example 6, N-[trans-3-({2-[(1-methyl-1H-pyrazol-4-yl)amino]-7H-pyrrolo[2,3-d]pyrimidin-4-yl}amino)cyclobutyl]prop-2-enamide]	< 5.00	–	< 5.00	< 5.00	–
C=CC(=O)Nc1cccc(Oc2nc(Nc3cn(C)nc3C)nc3[nH]ccc23)c1 [Example 30]	8.05	7.60	5.62	7.04	–
C=CC(=O)Nc1cccc(Oc2nc(Nc3cc(C)nn3C)nc3[nH]ccc23)c1 [Example 26]	7.68	6.87	5.17	6.75	–
C=CC(=O)Nc1cccc(Oc2nc(Nc3cnn(CCN(C)C)c3)nc3[nH]cnc23)c1 [Example 53]	6.45	6.18	< 5.00	5.94	–
C=CC(=O)Nc1cccc(Oc2nc(Nc3cnn(C)c3)nc3[nH]cc(-c4cccnc4)c23)c1 [Example 8, N-[3-({2-[(1-methyl-1H-pyrazol-4-yl)amino]-5-(pyridin-3-yl)-7H-pyrrolo[2,3-d]pyrimidin-4-yl}oxy)phenyl]prop-2-enamide]	7.77	8.10	5.86	7.60	8.52
C=CC(=O)Nc1cccc(Oc2nc(Nc3cc(COC)nn3C)nc3[nH]ccc23)c1 [Example 45]	7.08	–	< 5.00	6.15	–
C=CC(=O)N1CCc2c(Oc3nc(Nc4cnn(C)c4)nc4[nH]cc(C#N)c34)cccc21 [Example 37]	7.39	–	< 5.00	7.17	–

Structure (SMILES)	pIC50 [1]	pIC50 [2]	pIC50 [3]	pIC50 [4]	pIC50 [5]
C=CC(=O)Nc1cccc(Oc2nc(Nc3ccn(C)n3)nc3[nH]cc(F)c23)c1 [Example 1, N-[3-({5-fluoro-2-[(1-methyl-1H-pyrazol-3-yl)amino]-7H-pyrrolo[2,3-d]pyrimidin-4-yl}oxy)phenyl]prop-2-enamide]	7.48	–	< 5.00	6.23	–
C=CC(=O)Nc1cccc(Oc2nc(Nc3cnn(C4CCN(C)C4)c3)nc3[nH]cnc23)c1 (centres unmarked) [Example 7, N-{3-[(2-{[1-(1-methylpyrrolidin-3-yl)-1H-pyrazol-4-yl]amino}-9H-purin-6-yl)oxy]phenyl}prop-2-enamide]	6.40	5.95	< 5.00	5.95	–
C=CC(=O)Nc1cccc(Oc2nc(Nc3cc(CC)nn3C)nc3[nH]ccc23)c1 [Example 47]	7.30	6.50	< 5.00	6.12	–
C=CC(=O)N1CCc2c(Oc3nc(Nc4ccn(C)n4)nc4[nH]ccc34)cccc21 [Example 29]	–	6.94	–	–	–
C=CC(=O)Nc1cc(F)cc(Oc2nc(Nc3ccn(C)n3)nc3[nH]ccc23)c1 [Example 49]	8.15	7.66	5.69	7.01	–
C=CC(=O)N[C@H]1C[C@@H](Oc2nc(Nc3cnn(C)c3)nc3[nH]cnc23)C1 (single isomer, unassigned) [Example 55]	–	< 5.00	–	–	–
C=CC(=O)Nc1cccc(Oc2nc(Nc3cc(C4CC4)nn3C)nc3[nH]ccc23)c1 [Example 46]	7.10	–	< 5.00	6.31	–
C=CC(=O)Nc1cccc(Oc2nc(Nc3cnn(C)c3)nc3[nH]cnc23)c1 [Example 54]	6.77	6.72	< 5.00	6.17	–
C=CC(=O)Nc1cccc(Oc2nc(Nc3cnn(C4CCN(C)CC4)c3)nc3[nH]ccc23)c1 [Example 33]	7.70	7.57	5.66	6.92	–
C=CC(=O)N1CC[C@@H](Oc2nc(Nc3cnn(C)c3)nc3[nH]cc(C#N)c23)C1 [Example 20]	5.74	5.08	< 5.00	< 5.00	–
C=CC(=O)Nc1cccc(Oc2nc(Nc3cnn(C)c3C)nc3[nH]ccc23)c1 [Example 24]	7.70	–	5.17	6.56	–
C=CC(=O)Nc1cccc(Oc2nc(Nc3cnn(C4CCOC4)c3)nc3[nH]ccc23)c1 (centres unmarked) [Example 39]	7.82	7.00	5.55	6.72	–
C=CC(=O)Nc1cccc(COc2nc(Nc3cnn(C)c3)nc3[nH]ccc23)c1 [Example 43]	5.27	–	< 5.00	< 5.00	–
C=CC(=O)N1C[C@@H](CC)[C@H](COc2nc(Nc3cnn(C)c3)nc3[nH]ccc23)C1 (single isomer, unassigned) [Example 15]	6.74	–	< 5.00	6.08	–
C=CC(=O)N1CCO[C@H](COc2nc(Nc3cnn(C)c3)nc3[nH]ccc23)C1 [Example 18]	7.10	–	< 5.00	5.82	–

Second part, the compound after the results:

pIC50 [1]	pIC50 [2]	pIC50 [3]	pIC50 [4]	pIC50 [5]	Structure (SMILES)
7.82	6.29	< 5.00	6.48	–	C=CC(=O)N1C[C@H](COc2nc(Nc3cnn([C@@H]4CCOC4)c3)nc3[nH]cc(Cl)c23)[C@@H](OC)C1 [Example 103]
8.10	6.76	< 5.00	7.31	6.85	C=CC(=O)N1C[C@H](COc2nc(Nc3cnn(CC)n3)nc3[nH]cc(Cl)c23)[C@@H](OC)C1 [Example 67]
7.72	6.93	< 5.03	6.54	6.33	C=CC(=O)N[C@H]1C[C@@](C)(Oc2nc(Nc3cnn(C)c3)nc3[nH]cc(Cl)c23)C1 [Example 69]
–	–	< 5.00	–	6.08	C=CC(=O)N1C[C@H](COc2nc(Nc3cnn(C)c3)nc3[nH]cc(-c4ccccn4)c23)[C@@H](OC)C1 [Example 117]
–	–	< 5.00	–	5.49	C=CC(=O)N1CC[C@@H](Nc2nc(Nc3cnn(C)c3)nc3[nH]cc(C#N)c23)C1 [Example 78]
6.72	6.24	< 5.00	5.77	–	C=CC(=O)N(C)C1CC(Oc2nc(Nc3cnn(C)c3)nc3[nH]cc(C#N)c23)C1 (centres unmarked) [Example 61]
7.80	7.92	5.73	7.64	–	C=CC(=O)Nc1cccc(Oc2nc(Nc3cnn(C)c3)nc3[nH]cc(-c4cnn(C)c4)c23)c1 [Example 60]
6.17	–	< 5.00	< 5.00	–	C=CC(=O)Nc1cccc(Oc2nc(Nc3cnn(CC(=O)N(C)C)c3)nc3[nH]ccc23)c1 [Example 58]
–	< 5.00	–	–	–	C=CC(=O)N[C@H]1C[C@H](Oc2nc(Nc3cnn(C)c3)nc3[nH]cnc23)C1 (single isomer, unassigned) [Example 56]
8.10	8.05	< 5.00	7.82	–	C=CC(=O)Nc1cccc(Oc2nc(Nc3cnn([C@H]4CCN(C)C4)c3)nc3[nH]ccc23)c1F [Example 106]
7.60	6.96	< 5.00	6.91	–	C=CC(=O)Nc1cccc(Oc2nc(Nc3cc(OCCN(C)C)nn3C)nc3[nH]ccc23)c1F [Example 104]
8.05	6.51	< 5.00	6.92	–	C=CC(=O)N1C[C@@H]2[C@H](C1)[C@H]2Oc1nc(Nc2cnn(C)c2)nc2[nH]cc(Cl)c12 [Example 66]
8.15	7.44	< 5.10	7.11	–	C=CC(=O)Nc1cccc(Oc2nc(Nc3ccn(C)n3)nc3[nH]ccc23)c1F [Example 59]
